These results are taken from patent US8088930B2, “Benzimidazole derivatives” (Hoffmann-La Roche Inc., priority 2008, dated 2012).

For the assay, the target named is T1, FXR ligand binding domain (GST-FXR LBD fusion protein, human FXR aa 193-473) (Homo sapiens, UniProt Q96RI1).
T1 construct: fused on or other part: Glutathione-S-transferase (GST) fused N-terminally to the FXR LBD, used to capture the protein on glutathione SPA beads
T1 sequence (Q96RI1 211-486 limits assumed): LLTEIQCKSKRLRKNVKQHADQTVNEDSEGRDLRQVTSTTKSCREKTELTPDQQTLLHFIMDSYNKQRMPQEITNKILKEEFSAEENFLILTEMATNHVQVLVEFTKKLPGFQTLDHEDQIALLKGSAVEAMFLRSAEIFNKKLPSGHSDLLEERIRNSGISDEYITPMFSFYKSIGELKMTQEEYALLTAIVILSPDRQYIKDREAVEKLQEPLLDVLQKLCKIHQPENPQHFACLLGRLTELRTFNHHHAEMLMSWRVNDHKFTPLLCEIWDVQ
Kind of assay: Radioligand binding assay (scintillation proximity, radioligand displacement). Conditions: 40 nM GST-FXR LBD on SPA beads, test compound 6×10^−9 M to 2.5×10^−5 M, read-out: h-IC50 Binding. The method, boiled down: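 40 nM GST-FXR LBD, E. coli-expressed, bound to glutathione yttrium silicate SPA beads in 50 mM Hepes pH 7.4, 10 mM NaCl, 5 mM MgCl2, 0.01% CHAPS. Test compounds displace radioligand (e.g. 20 nM benzimidazolyl-acetamide ligand); bound ligand measured by scintillation proximity counting.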
For the molecule `O=C(O)C1(Oc2ccc(OCC(C3CCCCC3)n3c(-c4ccc(Cl)cc4)nc4cc(F)c(F)cc43)cc2)CC1` (stereo not shown) [Example 120, 1-(4-{2-[2-(4-Chloro-phenyl)-5,6-difluoro-benzoimidazol-1-yl]-2-cyclohexyl-ethoxy}-phenoxy)-cyclopropanecarboxylic acid], the IC50 (commonly the concentration that gives 50% inhibition) was determined as 30 nM.

`Cc1cc(Cl)ccc1-c1nc2cc(F)c(F)cc2n1C(COc1ccc(C(=O)O)cn1)C1CCCCC1` (stereo not shown) [Example 123, 6-{2-[2-(4-Chloro-2-methyl-phenyl)-5,6-difluoro-benzoimidazol-1-yl]-2-cyclohexyl-ethoxy}-nicotinic acid]: the IC50 turned out to be 30 nM.

With `Cc1cc(Cl)ccc1-c1nc2cc(F)c(F)cc2n1C(COc1c(F)cc(C(=O)O)cc1F)C1CCCCC1` (stereo not shown) [Example 124, 4-{2-[2-(4-Chloro-2-methyl-phenyl)-5,6-difluoro-benzoimidazol-1-yl]-2-cyclohexyl-ethoxy}-3,5-difluoro-benzoic acid], the IC50 is 3 nM.

Take `Fc1cc2nc(-c3ccc(Cl)cc3)n(C(COc3c(F)cc(-c4nnn[nH]4)cc3F)C3CCCCC3)c2cc1F` (stereo not shown) [Example 127, 2-(4-Chloro-phenyl)-1-{1-cyclohexyl-2-[2,6-difluoro-4-(1H-tetrazol-5-yl)-phenoxy]-ethyl}-5,6-difluoro-1H-benzoimidazole]: the IC50 worked out at 1 nM.

For the molecule `Fc1cc(-c2nnn[nH]2)cc(F)c1OCC(C1CCCCC1)n1c(-c2ccc(Cl)cc2)nc2ccccc21` (stereo not shown) [Example 128, 2-(4-Chloro-phenyl)-1-{1-cyclohexyl-2-[2,6-difluoro-4-(1H-tetrazol-5-yl)-phenoxy]-ethyl}-1H-benzoimidazole], the half-inhibitory concentration (IC50) was 20 nM.

In the case of `COc1ccc(-c2nc3cc(F)c(F)cc3n2C(COc2c(F)cc(-c3nnn[nH]3)cc2F)C2CCCCC2)c(OC)n1` (stereo not shown) [Example 129, 1-{1-Cyclohexyl-2-[2,6-difluoro-4-(1H-tetrazol-5-yl)-phenoxy]-ethyl}-2-(2,6-dimethoxy-pyridin-3-yl)-5,6-difluoro-1H-benzoimidazole], the IC50 worked out at 20 nM.

As for `O=C(O)c1ccc(OCC(C2CCCCCC2)n2c(-c3ccc(Cl)cc3)nc3cc(F)c(F)cc32)nc1` (stereo not shown) [Example 130, 6-{2-[2-(4-Chloro-phenyl)-5,6-difluoro-benzoimidazol-1-yl]-2-cycloheptyl-ethoxy}-nicotinic acid], the IC50 was 300 nM.

In the case of `O=C(O)c1cc(F)c(OCC(C2CCCCCC2)n2c(-c3ccc(Cl)cc3)nc3cc(F)c(F)cc32)c(F)c1` (stereo not shown) [Example 131, 4-{2-[2-(4-Chloro-phenyl)-5,6-difluoro-benzoimidazol-1-yl]-2-cycloheptyl-ethoxy}-3,5-difluoro-benzoic acid], the IC50 worked out at 20 nM.

In the case of `Cc1cc(-c2nnn[nH]2)cc(C)c1OCC(C1CCC(F)(F)CC1)n1c(-c2ccc(Cl)cc2)nc2cc(F)c(F)cc21` (stereo not shown) [Example 134, 2-(4-Chloro-phenyl)-1-{1-(4,4-difluoro-cyclohexyl)-2-[2,6-dimethyl-4-(1H-tetrazol-5-yl)-phenoxy]-ethyl}-5,6-difluoro-1H-benzoimidazole], the IC50 came to 10 nM.

Consider `Cc1cc(-c2nnn[nH]2)cc(C)c1OCC(C1CCCC1)n1c(-c2ccc(Cl)cc2)nc2cc(F)c(F)cc21` (stereo not shown) [Example 135, 2-(4-Chloro-phenyl)-1-{1-cyclopentyl-2-[2,6-dimethyl-4-(1H-tetrazol-5-yl)-phenoxy]-ethyl}-5,6-difluoro-1H-benzoimidazole], for which the half-inhibitory concentration (IC50) worked out at 20 nM.

For the molecule `Cc1cc(-c2nnn[nH]2)cc(C)c1OCC(C1CC1)n1c(-c2ccc(Cl)cc2)nc2cc(F)c(F)cc21` (stereo not shown) [Example 136, 2-(4-Chloro-phenyl)-1-{1-cyclopropyl-2-[2,6-dimethyl-4-(1H-tetrazol-5-yl)-phenoxy]-ethyl}-5,6-difluoro-1H-benzoimidazole], the half-inhibitory concentration (IC50) worked out at 100 nM.

With `Fc1cc2nc(-c3ccc(Cl)cc3)n(C(CNc3ccc(-c4nnn[nH]4)cc3)C3CCCCC3)c2cc1F` (stereo not shown) [Example 139, {2-[2-(4-Chloro-phenyl)-5,6-difluoro-benzoimidazol-1-yl]-2-cyclohexyl-ethyl}-[4-(1H-tetrazol-5-yl)-phenyl]-amine], the IC50 came out at 3 nM.

In the case of `O=C(O)c1ccc(SCC(C2CCCCC2)n2c(-c3ccc(Cl)cc3)nc3cc(F)c(F)cc32)cc1` (stereo not shown) [Example 140, 4-{2-[2-(4-Chloro-phenyl)-5,6-difluoro-benzoimidazol-1-yl]-2-cyclohexyl-ethylsulfanyl}-benzoic acid], the IC50 is 70 nM.

Consider `O=C(O)c1ccc(S(=O)(=O)CC(C2CCCCC2)n2c(-c3ccc(Cl)cc3)nc3cc(F)c(F)cc32)cc1` (stereo not shown) [Example 141, 4-{2-[2-(4-Chloro-phenyl)-5,6-difluoro-benzoimidazol-1-yl]-2-cyclohexyl-ethanesulfonyl}-benzoic acid], for which the half-inhibitory concentration (IC50) was 8200 nM.

For `O=C(O)c1ccc(CCC(C2CCCCC2)n2c(-c3ccccc3)nc3cc(F)c(F)cc32)cc1` (stereo not shown) [Example 142, 4-[3-Cyclohexyl-3-(5,6-difluoro-2-phenyl-benzoimidazol-1-yl)-propyl]-benzoic acid], the IC50 worked out at 5 nM.

With `COc1ccc(-c2nc3cc(F)c(F)cc3n2C(CCc2ccc(C(=O)O)cc2)C2CCCCC2)c(OC)n1` (stereo not shown) [Example 145, 4-{3-Cyclohexyl-3-[2-(2,6-dimethoxy-pyridin-3-yl)-5,6-difluoro-benzoimidazol-1-yl]-propyl}-benzoic acid], the half-inhibitory concentration (IC50) is 0.3 nM.
